Where “and” joins values, the source holds several entries; their conditions need not be identical. Equal entries are not always repeated. Inconclusive results and toxic doses are left out.
Test system: B6C3F1 mice, Lewis lung carcinoma iv, survival T/C
Test: NCI In Vivo Anticancer Drug Screen. Data for tumor model Lewis Lung Carcinoma (intravenous) in B6C3F1 mice
Conditions: endpoint: median survival time, higher = longer survival
Procedure, shortened: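 Mice carrying transplanted tumors received test compound; survival in the treated group was divided by that of the vehicle-treated control group to give the T/C value.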

[1] = dose: 12.5 mg/kg/injection, schedule: Q01DX009 (ip), vehicle: saline with Tween-80
[2] = dose: 25.0 mg/kg/injection, schedule: Q01DX009 (ip), vehicle: saline with Tween-80
[3] = dose: 50.0 mg/kg/injection, schedule: Q01DX009 (ip), vehicle: saline with Tween-80
[4] = dose: 100.0 mg/kg/injection, schedule: Q01DX009 (ip), vehicle: saline with Tween-80
[5] = dose: 12.5 mg/kg/injection, schedule: Q01DX009 (ip), vehicle: saline
[6] = dose: 25.0 mg/kg/injection, schedule: Q01DX009 (ip), vehicle: saline
[7] = dose: 50.0 mg/kg/injection, schedule: Q01DX009 (ip), vehicle: saline
[8] = dose: 6.25 mg/kg/injection, schedule: Q01DX009 (ip), vehicle: Klucel (hydroxypropylcellulose) (HPC)
[9] = dose: 12.5 mg/kg/injection, schedule: Q01DX009 (ip), vehicle: Klucel (hydroxypropylcellulose) (HPC)
[10] = dose: 25.0 mg/kg/injection, schedule: Q01DX009 (ip), vehicle: Klucel (hydroxypropylcellulose) (HPC)
[11] = dose: 50.0 mg/kg/injection, schedule: Q01DX009 (ip), vehicle: Klucel (hydroxypropylcellulose) (HPC)
[12] = dose: 6.25 mg/kg/injection, schedule: Q01DX009 (ip), vehicle: suspension in saline
[13] = dose: 12.5 mg/kg/injection, schedule: Q01DX009 (ip), vehicle: suspension in saline
[14] = dose: 25.0 mg/kg/injection, schedule: Q01DX009 (ip), vehicle: suspension in saline
[15] = dose: 50.0 mg/kg/injection, schedule: Q01DX009 (ip), vehicle: suspension in saline
[16] = dose: 100.0 mg/kg/injection, schedule: Q01DX009 (ip), vehicle: suspension in saline
[17] = dose: 200.0 mg/kg/injection, schedule: Q01DX009 (ip), vehicle: suspension in saline

C=C(OP(=O)(OC)OC)Sc1ccccc1C
T/C (dose: 0.06 mg/kg/injection, schedule: Q01DX009 (ip), vehicle: Klucel (hydroxypropylcellulose) (HPC)): 105 % of control | T/C (dose: 0.12 mg/kg/injection, schedule: Q01DX009 (ip), vehicle: Klucel (hydroxypropylcellulose) (HPC)): 104 % of control | T/C (dose: 0.25 mg/kg/injection, schedule: Q01DX009 (ip), vehicle: Klucel (hydroxypropylcellulose) (HPC)): 110 % of control | T/C (dose: 0.37 mg/kg/injection, schedule: Q01DX009 (ip), vehicle: Klucel (hydroxypropylcellulose) (HPC)): 100 % of control | T/C (dose: 0.5 mg/kg/injection, schedule: Q01DX009 (ip), vehicle: Klucel (hydroxypropylcellulose) (HPC)): 89 % of control | T/C (dose: 0.75 mg/kg/injection, schedule: Q01DX009 (ip), vehicle: Klucel (hydroxypropylcellulose) (HPC)): 91 % of control

Nc1nc2c(C(=O)N3CCCC3)nnn2c2ccccc12
T/C (dose: 6.25 mg/kg/injection, schedule: Q01DX009 (ip), vehicle: saline with Tween-80): 100 % of control | T/C [1]: 99 % of control | T/C [2]: 100 % of control | T/C [3]: 107 % of control | T/C [4]: 99 % of control

CN1N=C(N)c2cn(C3OC(COP(=O)(O)O)C(O)C3O)c3ncnc1c23 (centres undefined)
T/C (dose: 6.25 mg/kg/injection, schedule: Q01DX009 (ip), vehicle: water): 98 % of control

NCCCNCCSP(=O)(O)O
T/C [1]: 98 % of control | T/C [2]: 98 % of control | T/C [3]: 95 % of control | T/C [4]: 106 % of control | T/C (dose: 200.0 mg/kg/injection, schedule: Q01DX009 (ip), vehicle: saline with Tween-80): 105 % of control

CC[C@@H](C)[C@@H]1NC(=O)C(NC(=O)C(CC(C)C)N(C)C(=O)C2CCCN2C(=O)C(C)O)C(C)OC(=O)C(Cc2ccc(OC)cc2)N(C)C(=O)C2CCCN2C(=O)C(CC(C)C)NC(=O)C(C)C(=O)C(C(C)C)OC(=O)C[C@H]1O (some centres undefined)
T/C (dose: 25.0 micrograms/kg/injection, schedule: Q01DX009 (ip), vehicle: distilled water + alcohol): 96 % of control | T/C (dose: 50.0 micrograms/kg/injection, schedule: Q01DX009 (ip), vehicle: distilled water + alcohol): 102 % of control | T/C (dose: 100.0 micrograms/kg/injection, schedule: Q01DX009 (ip), vehicle: distilled water + alcohol): 98 % of control | T/C (dose: 200.0 micrograms/kg/injection, schedule: Q01DX009 (ip), vehicle: distilled water + alcohol): 96 % of control | T/C (dose: 400.0 micrograms/kg/injection, schedule: Q01DX009 (ip), vehicle: distilled water + alcohol): 98 % of control

CC(C)C(N)C(=O)Nc1nncs1 (centres undefined)
T/C [5]: 108 % of control | T/C [6]: 104 % of control | T/C [7]: 114 % of control and 121 % of control | T/C (dose: 50.62 mg/kg/injection, schedule: Q01DX009 (ip), vehicle: saline): 103 % of control | T/C (dose: 50.62 mg/kg/injection, schedule: Q01DX009 (ip), vehicle: suspension in saline): 110 % of control | T/C (dose: 67.5 mg/kg/injection, schedule: Q01DX009 (ip), vehicle: saline): 103 % of control | T/C (dose: 67.5 mg/kg/injection, schedule: Q01DX009 (ip), vehicle: suspension in saline): 124 % of control | T/C (dose: 90.0 mg/kg/injection, schedule: Q01DX009 (ip), vehicle: saline): 100 % of control | T/C (dose: 100.0 mg/kg/injection, schedule: Q01DX009 (ip), vehicle: saline): 165 % of control and 245 % of control | T/C (dose: 120.0 mg/kg/injection, schedule: Q01DX009 (ip), vehicle: saline): 112 % of control | T/C (dose: 120.0 mg/kg/injection, schedule: Q01DX009 (ip), vehicle: suspension in saline): 157 % of control | T/C (dose: 160.0 mg/kg/injection, schedule: Q01DX009 (ip), vehicle: saline): 117 % of control

Cc1cc(NCCCCCCNc2cc(C)nc3cc(N(C)C)ccc23)c2ccc(N(C)C)cc2n1
T/C (dose: 3.12 mg/kg/injection, schedule: Q01DX009 (ip), vehicle: distilled water + Tween-80 + alcohol): 98 % of control | T/C (dose: 6.25 mg/kg/injection, schedule: Q01DX009 (ip), vehicle: distilled water + Tween-80 + alcohol): 100 % of control | T/C (dose: 12.5 mg/kg/injection, schedule: Q01DX009 (ip), vehicle: distilled water + Tween-80 + alcohol): 93 % of control | T/C (dose: 25.0 mg/kg/injection, schedule: Q01DX009 (ip), vehicle: distilled water + Tween-80 + alcohol): 102 % of control

[CH3][Sn]([CH3])([Cl])[S]CCN
T/C (dose: 3.12 mg/kg/injection, schedule: Q01DX009 (ip), vehicle: saline): 99 % of control | T/C (dose: 6.25 mg/kg/injection, schedule: Q01DX009 (ip), vehicle: saline): 105 % of control | T/C [5]: 99 % of control | T/C [6]: 100 % of control | T/C [7]: 96 % of control

CCN(C)N=Nc1ccc(C(N)=O)cc1
T/C [8]: 95 % of control | T/C [9]: 104 % of control | T/C [10]: 111 % of control | T/C [11]: 122 % of control

C=C(C)C1C2CC3(C)C4(CO4)C4OC4C3(O)C1C(=O)O2 (centres undefined)
T/C (dose: 0.25 mg/kg/injection, schedule: Q01DX008 (ip), vehicle: Klucel (hydroxypropylcellulose) (HPC)): 108 % of control | T/C (dose: 0.5 mg/kg/injection, schedule: Q01DX008 (ip), vehicle: Klucel (hydroxypropylcellulose) (HPC)): 102 % of control | T/C (dose: 1.0 mg/kg/injection, schedule: Q01DX008 (ip), vehicle: Klucel (hydroxypropylcellulose) (HPC)): 108 % of control | T/C (dose: 2.0 mg/kg/injection, schedule: Q01DX008 (ip), vehicle: Klucel (hydroxypropylcellulose) (HPC)): 105 % of control

CCCCCCCCCCCCCCCCP(=O)(OCCOCCCCCC)OCCOCCCCCC
T/C [12]: 100 % of control | T/C [13]: 100 % of control | T/C [14]: 107 % of control | T/C [15]: 102 % of control

Cc1ccc2c(ccc(/C=C/c3ccc(O)c4ncccc34)[n+]2C)c1
T/C [5]: 100 % of control | T/C [6]: 86 % of control

c1cc(-c2cc3ccc(C4=NCCN4)cc3[nH]2)ccc1C1=NCCN1
T/C (dose: 3.12 mg/kg/injection, schedule: Q01DX009 (ip), vehicle: suspension in saline): 100 % of control | T/C [12]: 120 % of control | T/C [13]: 115 % of control | T/C [14]: 111 % of control

CCC(C(=O)O)C(=O)O.[NH-]CC1CCCC[N-]1.[Pt+2]
T/C [5]: 105 % of control | T/C [13]: 103 % of control | T/C [6]: 106 % of control | T/C [14]: 104 % of control | T/C [7]: 113 % of control | T/C [15]: 116 % of control | T/C [16]: 123 % of control

CC(=O)OCC1OC([S-])C(OC(C)=O)C(OC(C)=O)C1OC(C)=O.CC[PH+](CC)CC.CC[PH+](CC)CC.[Au].[Au] (centres undefined)
T/C (dose: 0.62 mg/kg/injection, schedule: Q01DX009 (ip), vehicle: Klucel (hydroxypropylcellulose) (HPC)): 91 % of control and 104 % of control | T/C (dose: 1.25 mg/kg/injection, schedule: Q01DX009 (ip), vehicle: Klucel (hydroxypropylcellulose) (HPC)): 98 % of control and 106 % of control | T/C (dose: 2.5 mg/kg/injection, schedule: Q01DX009 (ip), vehicle: Klucel (hydroxypropylcellulose) (HPC)): 100 % of control and 109 % of control | T/C (dose: 5.0 mg/kg/injection, schedule: Q01DX009 (ip), vehicle: Klucel (hydroxypropylcellulose) (HPC)): 101 % of control | T/C (dose: 10.0 mg/kg/injection, schedule: Q01DX009 (ip), vehicle: Klucel (hydroxypropylcellulose) (HPC)): 102 % of control and 104 % of control

Nc1nc(=S)c2[nH]cnc2[nH]1
T/C (dose: 0.5 mg/kg/injection, schedule: Q01DX009 (ip), vehicle: saline): 104 % of control | T/C (dose: 2.0 mg/kg/injection, schedule: Q01DX009 (ip), vehicle: saline): 114 % of control

O=C1OC(=O)[C@H]2[C@@H]1[C@H]1C=C[C@@H]2OC1=O
T/C [13]: 104 % of control | T/C [14]: 119 % of control | T/C [15]: 98 % of control | T/C [16]: 99 % of control | T/C [17]: 104 % of control

Cc1cc(NS(=O)(=O)c2ccc(N=Nc3cc(N=Nc4ccc(S(=O)(=O)Nc5cc(C)nc(C)n5)cc4)c4c(NC(=O)C(Cl)Cl)cccc4c3OC(=O)C(Cl)Cl)cc2)nc(C)n1 (tested in a mixture with another compound)
T/C [14]: 105 % of control | T/C [15]: 90 % of control | T/C [16]: 88 % of control | T/C [17]: 88 % of control

COc1ccc2[nH]c3c(c2c1)CCNC3CC(C)CCC=C(C)C (centres undefined)
T/C [8]: 98 % of control | T/C [9]: 98 % of control | T/C [10]: 92 % of control | T/C [11]: 103 % of control | T/C (dose: 100.0 mg/kg/injection, schedule: Q01DX009 (ip), vehicle: Klucel (hydroxypropylcellulose) (HPC)): 105 % of control

From PubChem BioAssay AID276 (DTP/NCI, 2004)
